Measured values: PubChem BioAssay (NCI)
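Step 1: Grow cells in 96-well plates. Step 2: Expose to compound for 48 hours at 5 concentrations. Step 3: Interpolate endpoints linearly; if unreached, use highest concentration. TGI denotes the concentration required for complete inhibition of growth.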

Key:
Assay in all cases: inhibition of tumour cell growth, NCI panel, 48 h
DLD-1 colon = tested on: DLD-1 colon
COLO 205 colon = tested on: COLO 205 colon
LOX IMVI melanoma = tested on: LOX IMVI melanoma
CCRF-CEM leukemia = tested on: CCRF-CEM leukemia
SK-MEL-5 melanoma = tested on: SK-MEL-5 melanoma
OVCAR-5 ovarian = tested on: OVCAR-5 ovarian
CAKI-1 renal = tested on: CAKI-1 renal
IGROV1 ovarian = tested on: IGROV1 ovarian
HCT-15 colon = tested on: HCT-15 colon
ACHN renal = tested on: ACHN renal
KM20L2 colon = tested on: KM20L2 colon
SF-295 CNS = tested on: SF-295 CNS
SK-MEL-2 melanoma = tested on: SK-MEL-2 melanoma
HCT-116 colon = tested on: HCT-116 colon
SN12C renal = tested on: SN12C renal
SW-620 colon = tested on: SW-620 colon
UACC-257 melanoma = tested on: UACC-257 melanoma
EKVX NSCLC = tested on: EKVX NSCLC
HT29 colon = tested on: HT29 colon
HCC-2998 colon = tested on: HCC-2998 colon
HOP-62 NSCLC = tested on: HOP-62 NSCLC
TK-10 renal = tested on: TK-10 renal
M14 melanoma = tested on: M14 melanoma
HL-60(TB) leukemia = tested on: HL-60(TB) leukemia
MALME-3M melanoma = tested on: MALME-3M melanoma
K-562 leukemia = tested on: K-562 leukemia
SNB-19 CNS = tested on: SNB-19 CNS
U251 CNS = tested on: U251 CNS
OVCAR-4 ovarian = tested on: OVCAR-4 ovarian
SNB-78 CNS = tested on: SNB-78 CNS
SF-268 CNS = tested on: SF-268 CNS
KM12 colon = tested on: KM12 colon
MOLT-4 leukemia = tested on: MOLT-4 leukemia
OVCAR-3 ovarian = tested on: OVCAR-3 ovarian
UACC-62 melanoma = tested on: UACC-62 melanoma
UO-31 renal = tested on: UO-31 renal
NCI-H226 lung = tested on: NCI-H226 lung
NCI-H23 lung = tested on: NCI-H23 lung
SK-OV-3 ovarian = tested on: SK-OV-3 ovarian
XF 498 CNS = tested on: XF 498 CNS
RXF 393 renal = tested on: RXF 393 renal
SK-MEL-28 melanoma = tested on: SK-MEL-28 melanoma
RPMI-8226 leukemia = tested on: RPMI-8226 leukemia
SR leukemia = tested on: SR leukemia
HOP-18 NSCLC = tested on: HOP-18 NSCLC
SF-539 CNS = tested on: SF-539 CNS
LXFL 529 NSCLC = tested on: LXFL 529 NSCLC
A549 NSCLC = tested on: A549 NSCLC
RXF-631 renal = tested on: RXF-631 renal
SNB-75 CNS = tested on: SNB-75 CNS
OVCAR-8 ovarian = tested on: OVCAR-8 ovarian
HOP-92 NSCLC = tested on: HOP-92 NSCLC
DMS 273 small cell lung = tested on: DMS 273 small cell lung
NCI-H460 lung = tested on: NCI-H460 lung
786-0 renal = tested on: 786-0 renal
NCI-H522 lung = tested on: NCI-H522 lung
M19-MEL melanoma = tested on: M19-MEL melanoma
DMS 114 small cell lung = tested on: DMS 114 small cell lung
A498 renal = tested on: A498 renal

## NC(=O)c1ncn(CCN2CCN(C(=O)NCCCCCCNC(=O)N3CCN(CCn4cnc(C(N)=O)c4N)CC3)CC2)c1N
DLD-1 colon
  TGI: > 100 µM
COLO 205 colon
  TGI: > 100 µM
LOX IMVI melanoma
  TGI: > 100 µM
CCRF-CEM leukemia
  TGI: > 100 µM
SK-MEL-5 melanoma
  TGI: > 100 µM
OVCAR-5 ovarian
  TGI: > 100 µM
CAKI-1 renal
  TGI: > 100 µM
IGROV1 ovarian
  TGI: > 100 µM
HCT-15 colon
  TGI: > 100 µM
ACHN renal
  TGI: > 100 µM
KM20L2 colon
  TGI: > 100 µM
SF-295 CNS
  TGI: > 100 µM
SK-MEL-2 melanoma
  TGI: > 100 µM
HCT-116 colon
  TGI: > 100 µM
SN12C renal
  TGI: > 100 µM
SW-620 colon
  TGI: > 100 µM
UACC-257 melanoma
  TGI: > 100 µM
EKVX NSCLC
  TGI: > 100 µM
HT29 colon
  TGI: > 100 µM
HCC-2998 colon
  TGI: > 100 µM
HOP-62 NSCLC
  TGI: > 100 µM
TK-10 renal
  TGI: > 100 µM
M14 melanoma
  TGI: > 100 µM
HL-60(TB) leukemia
  TGI: > 100 µM
MALME-3M melanoma
  TGI: > 100 µM
K-562 leukemia
  TGI: > 100 µM
SNB-19 CNS
  TGI: > 100 µM
U251 CNS
  TGI: > 100 µM
OVCAR-4 ovarian
  TGI: > 100 µM
SNB-78 CNS
  TGI: > 100 µM
SF-268 CNS
  TGI: > 100 µM
KM12 colon
  TGI: > 100 µM
MOLT-4 leukemia
  TGI: > 100 µM
OVCAR-3 ovarian
  TGI: > 100 µM
UACC-62 melanoma
  TGI: > 100 µM
UO-31 renal
  TGI: > 100 µM
NCI-H226 lung
  TGI: > 100 µM
NCI-H23 lung
  TGI: > 100 µM
SK-OV-3 ovarian
  TGI: > 100 µM
XF 498 CNS
  TGI: > 100 µM
RXF 393 renal
  TGI: > 100 µM
SK-MEL-28 melanoma
  TGI: > 100 µM
RPMI-8226 leukemia
  TGI: > 100 µM
SR leukemia
  TGI: > 100 µM
HOP-18 NSCLC
  TGI: > 100 µM
SF-539 CNS
  TGI: > 100 µM
LXFL 529 NSCLC
  TGI: > 100 µM
A549 NSCLC
  TGI: > 100 µM
RXF-631 renal
  TGI: > 100 µM
SNB-75 CNS
  TGI: > 100 µM
OVCAR-8 ovarian
  TGI: > 100 µM
HOP-92 NSCLC
  TGI: > 100 µM
DMS 273 small cell lung
  TGI: > 100 µM
NCI-H460 lung
  TGI: > 100 µM
786-0 renal
  TGI: > 100 µM

## Cc1cc2c(C(C)C)c(O)c(O)c(C=NCCO)c2c(O)c1-c1c(C)cc2c(C(C)C)c(O)c(O)c(C=NCCO)c2c1O
DLD-1 colon
  TGI: 11.7 µM
COLO 205 colon
  TGI: 3.03 µM
LOX IMVI melanoma
  TGI: 3.11 µM
CCRF-CEM leukemia
  TGI: 5.78 µM
SK-MEL-5 melanoma
  TGI: 3.23 µM
OVCAR-5 ovarian
  TGI: 9.63 µM
CAKI-1 renal
  TGI: 19.5 µM
IGROV1 ovarian
  TGI: 6.38 µM
HCT-15 colon
  TGI: 2.9 µM
ACHN renal
  TGI: 12.4 µM
SF-295 CNS
  TGI: 5.51 µM
SK-MEL-2 melanoma
  TGI: 14.6 µM
HCT-116 colon
  TGI: 3.03 µM
SN12C renal
  TGI: 9.63 µM
NCI-H522 lung
  TGI: 4.78 µM
SW-620 colon
  TGI: 16.7 µM
UACC-257 melanoma
  TGI: 4.98 µM
EKVX NSCLC
  TGI: 7.3 µM
M19-MEL melanoma
  TGI: 3.62 µM
HT29 colon
  TGI: 4.99 µM
HCC-2998 colon
  TGI: 8.25 µM
HOP-62 NSCLC
  TGI: 5.96 µM
TK-10 renal
  TGI: 18.4 µM
M14 melanoma
  TGI: 3.58 µM
HL-60(TB) leukemia
  TGI: 4.97 µM
MALME-3M melanoma
  TGI: 9.36 µM
K-562 leukemia
  TGI: 3.31 µM
DMS 114 small cell lung
  TGI: 2.7 µM
SNB-19 CNS
  TGI: 25.1 µM
A498 renal
  TGI: 9.76 µM
U251 CNS
  TGI: 2.59 µM
OVCAR-4 ovarian
  TGI: 16.3 µM
SNB-78 CNS
  TGI: 34.1 µM
SF-268 CNS
  TGI: 3.1 µM
KM12 colon
  TGI: 2.4 µM
MOLT-4 leukemia
  TGI: 2.46 µM
OVCAR-3 ovarian
  TGI: 5.79 µM
UACC-62 melanoma
  TGI: 6.15 µM
UO-31 renal
  TGI: 11 µM
NCI-H226 lung
  TGI: 6.88 µM
NCI-H23 lung
  TGI: 4.16 µM
SK-OV-3 ovarian
  TGI: 12.3 µM
XF 498 CNS
  TGI: 8.43 µM
RXF 393 renal
  TGI: 9.51 µM
SK-MEL-28 melanoma
  TGI: 3.66 µM
RPMI-8226 leukemia
  TGI: 4.9 µM
SR leukemia
  TGI: 3.78 µM
HOP-18 NSCLC
  TGI: 5.37 µM
SF-539 CNS
  TGI: 5.37 µM
LXFL 529 NSCLC
  TGI: 3.05 µM
A549 NSCLC
  TGI: 2.98 µM
RXF-631 renal
  TGI: 5.35 µM
SNB-75 CNS
  TGI: 9.13 µM
OVCAR-8 ovarian
  TGI: 21.9 µM
HOP-92 NSCLC
  TGI: 5.07 µM
DMS 273 small cell lung
  TGI: 3.16 µM
NCI-H460 lung
  TGI: 2.41 µM
786-0 renal
  TGI: 4.83 µM
